# From article PMC5672931 (British Journal of Cancer, 2017)
# Marks after values point to notes of the source that are not given here.
# Experiments:
# [1] = system: patients with advanced malignancies; assay: phase 1 dose escalation: MAD, RP2D and dose-limiting toxicities; type: in vivo, human
# [2] = system: PHA-stimulated lymphocytes in whole blood; assay: ex vivo lymphocyte stimulation assay; type: cell-based, human
# [3] = system: Rb phosphorylation and other CDK targets in metastatic melanoma biopsies; assay: CDK targets in paired tumour biopsies; type: in vivo, human; settings: three patients with metastatic melanoma
# [4] = system: patients with solid tumours; settings: weekly study; ref Nemunaitis et al, 2013; cited from earlier work
# [5] = coadministration with aprepitant; ref Zhang et al, 2012; cited from earlier work
# [6] = pharmacokinetics, plasma concentrations by LC-MS/MS; settings: for half-life / AUC / Cmax / Tmax: human, plasma, intravenous; for AUC / Cmax: mean
# [7] = 2-h infusion, 29.6 mg m^−2, n=5
# [8] = 2-h infusion, 41.4 mg m^−2, n=6
smiles,measurement,setting,value
"CCc1cnn2c(NCc3ccc[n+]([O-])c3)cc(N3CCCC[C@H]3CCO)nc12 [dinaciclib, Dinaciclib]",recommended phase 2 dose (RP2D),[1]; 2-h i.v. infusion every 21 days,50 mg m^−2
same,maximum administered dose (MAD),[1]; 2-h infusion,58 mg m^−2
same,No of subjects with DLT in cycle 1,"[1]; 2-hour infusion, 50 mg/m2 (RP2D), 15 subjects treated",4 of 15
same,recommended phase 2 dose (RP2D),[1]; 8-h i.v. infusion every 3 weeks,7.4 mg m^−2
same,recommended phase 2 dose (RP2D) / highest safe dose,[1]; 24-h i.v. infusion every 3 weeks,10.4 mg m^−2
same,dose achieving reductions to <5% BrdU incorporation,[2]; 2-h infusions,≥ 7.4 mg m^−2
same,dose reproducibly achieving a sustained PD effect through 8 h,[2]; 2-h infusions,≥ 29.6 mg m^−2
same,plasma concentration at which reductions to <5% BrdU incorporation were observed,[2]; 2-h infusions,~200 ng/mL
same,dose achieving suppression of lymphocyte proliferation,[2]; 8-h infusions,≥ 7.4 mg m^−2
same,patients with pharmacodynamic reductions in BrdU incorporation,"[2]; part 1, 2-h infusions",24 of 35
same,patients with reduction of PHA-stimulated BrdU incorporation to <5% at at least one post-dose time point,"[2]; part 1, of the 24 patients with reductions",23
same,expression of Rb phosphorylated at S795,[3],reduced expression
same,expression of Rb phosphorylated at T356,[3],reduced expression
same,expression of Rb phosphorylated at other sites and of total Rb,[3],overall preserved expression
same,increases in p27^Kip1 and p53 post-treatment,[3],occurred in two samples
same,subjects with grade ⩾3 neutropenia,[4],10%
same,effect of aprepitant on dinaciclib PK parameters,[5],does not significantly alter dinaciclib PK parameters
same,"CL, mean","[6]; 2-h infusion, 1.85 mg m^−2, n=1",13.6 L h^−1 m^−2
same,"CL, mean","[6]; 2-h infusion, 3.7 mg m^−2, n=1",11.0 L h^−1 m^−2
same,"t1/2, mean","[6]; 2-h infusion, 3.7 mg m^−2, n=1",2.84 h
same,"CL, mean","[6]; 2-h infusion, 7.4 mg m^−2, n=1",7.61 L h^−1 m^−2
same,"CL, mean","[6]; 2-h infusion, 14.8 mg m^−2, n=1",13.8 L h^−1 m^−2
same,"CL, mean",[6]; [7],13.6 ^c L h^−1 m^−2
same,"t1/2, mean",[6]; [7],2.84 ^c h
same,"CL, mean",[6]; [8],26.8 L h^−1 m^−2
same,"t1/2, mean",[6]; [8],2.86 h
same,"CL, mean","[6]; 2-h infusion, 50 mg m^−2, n=15",16.1 L h^−1 m^−2
same,"CL, mean","[6]; 2-h infusion, 58 mg m^−2, n=4",18.9 L h^−1 m^−2
same,"Cmax, mean","[6]; 8-h infusion, 7.4 mg m^−2, n=6",95.5 ng/mL
same,"Cmax, mean","[6]; 8-h infusion, 14.8 mg m^−2, n=3",95.8 ng/mL
same,"Cmax, mean","[6]; 8-h infusion, 41.4 mg m^−2, n=2",429 ng/mL
same,dose dependence of CL,[6]; based on the PK findings,dose-independent
same,half-life,[6],1.4 to 3.3 h
same,AUC,"[6]; 1.85 mg m^−2, AUC(l), 2-h infusion, 1.85 mg m^−2, n=1",136 ng·h/mL
same,AUC,"[6]; 1.85 mg m^−2, AUC(tf), 2-h infusion, 1.85 mg m^−2, n=1",135 ng·h/mL
same,Cmax,"[6]; 1.85 mg m^−2, Cmax, 2-h infusion, 1.85 mg m^−2, n=1",62.5 ng/mL
same,AUC,"[6]; 7.4 mg m^−2, AUC(l), 2-h infusion, 7.4 mg m^−2, n=1",975 ng·h/mL
same,AUC,"[6]; 7.4 mg m^−2, AUC(tf), 2-h infusion, 7.4 mg m^−2, n=1",974 ng·h/mL
same,AUC,"[6]; 7.4 mg m^−2, AUC(tf), 8-h infusion, 7.4 mg m^−2, n=6",687 ng·h/mL
same,AUC,"[6]; 7.4 mg m^−2, AUC(tf), 24-h infusion, 7.4 mg m^−2, n=4",877 ng·h/mL
same,Cmax,"[6]; 7.4 mg m^−2, Cmax, 2-h infusion, 7.4 mg m^−2, n=1",353 ng/mL
same,Cmax,"[6]; 7.4 mg m^−2, Cmax, 24-h infusion, 7.4 mg m^−2, n=4",41.4 ng/mL
same,Tmax,"[6]; 7.4 mg m^−2, Tmax, median, 8-h infusion, 7.4 mg m^−2, n=4",4 h
same,Tmax,"[6]; 7.4 mg m^−2, Tmax, median, 24-h infusion, 7.4 mg m^−2, n=1",24 h
same,AUC,"[6]; 10.4 mg m^−2, AUC(tf), 24-h infusion, 10.4 mg m^−2, n=3",982 ng·h/mL
same,Cmax,"[6]; 10.4 mg m^−2, Cmax, 24-h infusion, 10.4 mg m^−2, n=3",51.4 ng/mL
same,Tmax,"[6]; 10.4 mg m^−2, Tmax, median, 24-h infusion, 10.4 mg m^−2, n=2",15 h
same,AUC,"[6]; 14.6 mg m^−2, AUC(tf), 24-h infusion, 14.6 mg m^−2, n=3",2590 ng·h/mL
same,Cmax,"[6]; 14.6 mg m^−2, Cmax, 24-h infusion, 14.6 mg m^−2, n=3",161 ng/mL
same,Tmax,"[6]; 14.6 mg m^−2, Tmax, median, 24-h infusion, 14.6 mg m^−2, n=2",15 h
same,half-life,[6]; 14.8 mg m^−2,2.78 h
same,AUC,"[6]; 14.8 mg m^−2, AUC(l), 2-h infusion, 14.8 mg m^−2, n=1",1060 ng·h/mL
same,AUC,"[6]; 14.8 mg m^−2, AUC(tf), 2-h infusion, 14.8 mg m^−2, n=1",1060 ng·h/mL
same,AUC,"[6]; 14.8 mg m^−2, AUC(tf), 8-h infusion, 14.8 mg m^−2, n=3",702 ng·h/mL
same,Cmax,"[6]; 14.8 mg m^−2, Cmax, 2-h infusion, 14.8 mg m^−2, n=1",396 ng/mL
same,Tmax,"[6]; 14.8 mg m^−2, Tmax, median, 8-h infusion, 14.8 mg m^−2, n=3",4 h
same,AUC,"[6]; 29.6 mg m^−2, AUC(l), 2-h infusion, 29.6 mg m^−2, n=5",2440 ng·h/mL
same,AUC,"[6]; 29.6 mg m^−2, AUC(tf), 2-h infusion, 29.6 mg m^−2, n=5",2060 ng·h/mL
same,AUC,"[6]; 29.6 mg m^−2, AUC(tf), 8-h infusion, 29.6 mg m^−2, n=3",2300 ng·h/mL
same,Cmax,"[6]; 29.6 mg m^−2, Cmax, 2-h infusion, 29.6 mg m^−2, n=6",890 ng/mL
same,Cmax,"[6]; 29.6 mg m^−2, Cmax, 8-h infusion, 29.6 mg m^−2, n=3",333 ng/mL
same,Tmax,"[6]; 29.6 mg m^−2, Tmax, median, 8-h infusion, 29.6 mg m^−2, n=3",4 h
same,AUC,"[6]; 41.4 mg m^−2, AUC(l), 2-h infusion, 41.4 mg m^−2, n=6",2880 ng·h/mL
same,AUC,"[6]; 41.4 mg m^−2, AUC(tf), 2-h infusion, 41.4 mg m^−2, n=6",2860 ng·h/mL
same,AUC,"[6]; 41.4 mg m^−2, AUC(tf), 8-h infusion, 41.4 mg m^−2, n=2",3300 ng·h/mL
same,Cmax,"[6]; 41.4 mg m^−2, Cmax, 2-h infusion, 41.4 mg m^−2, n=6",1300 ng/mL
same,Tmax,"[6]; 41.4 mg m^−2, Tmax, median, 8-h infusion, 41.4 mg m^−2, n=1",4 h
same,AUC,"[6]; 50 mg m^−2, AUC(l), 2-h infusion, 50 mg m^−2, n=15",3940 ng·h/mL
same,AUC,"[6]; 50 mg m^−2, AUC(tf), 2-h infusion, 50 mg m^−2, n=15",3910 ng·h/mL
same,AUC,"[6]; 50 mg m^−2, AUC(tf), 8-h infusion, 50 mg m^−2, n=2",3670 ng·h/mL
same,Cmax,"[6]; 50 mg m^−2, Cmax, 2-h infusion, 50 mg m^−2, n=15",1810 ng/mL
same,Cmax,"[6]; 50 mg m^−2, Cmax, 8-h infusion, 50 mg m^−2, n=2",475 ng/mL
same,Tmax,"[6]; 50 mg m^−2, Tmax, median, 8-h infusion, 50 mg m^−2, n=2",8 h
same,AUC,"[6]; 58 mg m^−2, AUC(l), 2-h infusion, 58 mg m^−2, n=4",3370 ng·h/mL
same,AUC,"[6]; 58 mg m^−2, AUC(tf), 2-h infusion, 58 mg m^−2, n=4",3360 ng·h/mL
same,Cmax,"[6]; 58 mg m^−2, Cmax, 2-h infusion, 58 mg m^−2, n=4",1460 ng/mL
same,Tmax,"[6]; Tmax, after the initiation of the 2-h infusion, 35 patients in Part 1, across doses",1 to 2 h
same,Tmax,"[6]; Tmax, after the start of the 8-h infusion, 16 patients",4 to 8 h
same,Tmax,"[6]; Tmax, after the start of the 24-h infusion",6 to 24 h
